pEC50, pKd: −log10 of the molar value. Residues, ends and D or L forms follow the SMILES beside them.
What was measured:
Insulin receptor [1] = target: T1, Insulin receptor (Homo sapiens, UniProt P06213); assay: Activation of recombinant human insulin receptor using biotin-KSRGDYMTMQIG as substrate after 1 hr by spectrophotometry relative to insulin
Insulin receptor [2] = target: Insulin receptor (Mus musculus, UniProt P15208); assay: Agonist activity at B6D2F1 mouse insulin receptor assessed as increase in glucose incorporation into lipid phase after 2 hrs in presence of D-[3-3H]glucose by TopCount microplate scintillation counting method
Sequence of Insulin receptor (Mus musculus, UniProt P15208) (P15208 28-748 limits assumed): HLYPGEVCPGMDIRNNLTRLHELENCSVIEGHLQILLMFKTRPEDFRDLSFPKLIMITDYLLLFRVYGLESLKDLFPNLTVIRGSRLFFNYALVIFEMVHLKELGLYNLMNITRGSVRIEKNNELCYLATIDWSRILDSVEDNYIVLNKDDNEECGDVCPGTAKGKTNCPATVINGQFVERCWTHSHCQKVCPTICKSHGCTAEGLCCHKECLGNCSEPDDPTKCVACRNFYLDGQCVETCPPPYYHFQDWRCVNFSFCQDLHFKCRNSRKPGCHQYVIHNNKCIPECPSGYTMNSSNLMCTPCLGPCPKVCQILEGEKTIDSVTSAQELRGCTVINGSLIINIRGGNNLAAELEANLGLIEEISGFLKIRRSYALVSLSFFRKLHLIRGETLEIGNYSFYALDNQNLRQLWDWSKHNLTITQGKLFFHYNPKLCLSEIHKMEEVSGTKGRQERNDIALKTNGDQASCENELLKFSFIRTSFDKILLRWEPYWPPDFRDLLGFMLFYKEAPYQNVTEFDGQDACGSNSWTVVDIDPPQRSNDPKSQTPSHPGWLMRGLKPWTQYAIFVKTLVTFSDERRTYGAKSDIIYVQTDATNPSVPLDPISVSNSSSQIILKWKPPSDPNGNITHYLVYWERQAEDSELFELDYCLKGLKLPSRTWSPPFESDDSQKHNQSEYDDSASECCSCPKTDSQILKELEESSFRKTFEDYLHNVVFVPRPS
Sequence of Insulin receptor (Mus musculus, UniProt P15208) (P15208 753-1372 limits assumed): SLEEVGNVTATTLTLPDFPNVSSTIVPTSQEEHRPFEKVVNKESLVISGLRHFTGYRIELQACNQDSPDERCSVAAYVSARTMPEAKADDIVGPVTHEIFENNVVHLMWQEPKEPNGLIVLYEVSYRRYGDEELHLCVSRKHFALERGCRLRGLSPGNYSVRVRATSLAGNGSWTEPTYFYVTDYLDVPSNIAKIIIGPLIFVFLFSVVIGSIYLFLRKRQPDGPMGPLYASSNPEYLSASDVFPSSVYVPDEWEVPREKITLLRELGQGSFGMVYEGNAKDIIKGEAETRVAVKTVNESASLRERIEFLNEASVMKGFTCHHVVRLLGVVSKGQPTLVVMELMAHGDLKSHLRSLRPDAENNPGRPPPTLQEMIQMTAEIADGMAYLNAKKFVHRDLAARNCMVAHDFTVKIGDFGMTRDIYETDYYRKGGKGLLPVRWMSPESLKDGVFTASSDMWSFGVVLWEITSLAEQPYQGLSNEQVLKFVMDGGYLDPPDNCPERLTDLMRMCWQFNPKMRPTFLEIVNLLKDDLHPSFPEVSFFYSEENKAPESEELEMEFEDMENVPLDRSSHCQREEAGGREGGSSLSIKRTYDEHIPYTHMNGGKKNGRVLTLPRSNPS

Insulin receptor [3] = target: T1, Insulin receptor; assay: Displacement of [TyrA14-125I]-human insulin from human insulin receptor isoform A expressed in baby hamster kidney cells after 2 days by gamma counting method; assay type: cell-based

T1 sequence (P06213 28-758 limits assumed): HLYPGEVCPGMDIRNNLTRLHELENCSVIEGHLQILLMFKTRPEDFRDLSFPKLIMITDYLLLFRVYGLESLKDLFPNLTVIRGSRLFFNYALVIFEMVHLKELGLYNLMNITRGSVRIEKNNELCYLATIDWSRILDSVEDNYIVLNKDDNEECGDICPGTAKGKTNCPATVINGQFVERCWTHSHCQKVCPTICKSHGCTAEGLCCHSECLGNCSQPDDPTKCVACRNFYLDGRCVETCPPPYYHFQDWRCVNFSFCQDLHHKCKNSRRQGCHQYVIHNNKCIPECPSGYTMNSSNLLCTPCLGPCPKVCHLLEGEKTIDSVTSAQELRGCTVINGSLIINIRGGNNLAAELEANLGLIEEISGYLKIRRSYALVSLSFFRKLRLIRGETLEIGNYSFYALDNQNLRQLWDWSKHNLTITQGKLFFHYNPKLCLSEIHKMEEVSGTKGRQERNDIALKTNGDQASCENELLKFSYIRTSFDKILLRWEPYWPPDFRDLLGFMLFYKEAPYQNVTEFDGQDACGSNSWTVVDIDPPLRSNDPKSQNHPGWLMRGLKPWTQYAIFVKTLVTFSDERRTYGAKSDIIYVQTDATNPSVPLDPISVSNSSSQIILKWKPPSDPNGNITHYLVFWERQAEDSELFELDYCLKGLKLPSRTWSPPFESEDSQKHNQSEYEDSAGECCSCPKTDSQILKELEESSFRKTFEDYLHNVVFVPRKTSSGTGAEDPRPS
T1 sequence (P06213 763-1382 limits assumed): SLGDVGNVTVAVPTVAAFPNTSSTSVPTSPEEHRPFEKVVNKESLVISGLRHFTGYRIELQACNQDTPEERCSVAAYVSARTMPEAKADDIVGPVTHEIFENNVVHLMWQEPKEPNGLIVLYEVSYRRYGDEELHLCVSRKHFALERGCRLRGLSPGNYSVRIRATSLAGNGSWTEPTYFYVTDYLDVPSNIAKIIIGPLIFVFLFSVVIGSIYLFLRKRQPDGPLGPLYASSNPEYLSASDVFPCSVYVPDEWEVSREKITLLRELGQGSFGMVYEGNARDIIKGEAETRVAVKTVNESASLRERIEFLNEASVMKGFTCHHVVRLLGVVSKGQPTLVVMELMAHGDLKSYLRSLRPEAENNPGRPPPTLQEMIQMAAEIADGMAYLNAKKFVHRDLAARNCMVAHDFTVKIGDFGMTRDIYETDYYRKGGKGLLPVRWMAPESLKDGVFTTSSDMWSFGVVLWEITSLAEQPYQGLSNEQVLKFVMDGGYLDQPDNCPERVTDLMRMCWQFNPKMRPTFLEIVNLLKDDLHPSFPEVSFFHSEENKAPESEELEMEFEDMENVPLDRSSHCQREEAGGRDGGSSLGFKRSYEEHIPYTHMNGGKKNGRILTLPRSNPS

## CC(C)C[C@H](NC(=O)[C@H](CCC(N)=O)NC(=O)[C@H](CCCNC(=N)N)NC(=O)[C@H](CCC(=O)O)NC(=O)[C@H](Cc1ccccc1)NC(=O)[C@H](Cc1c[nH]c2ccccc12)NC(=O)[C@H](CC(=O)O)NC(=O)[C@H](Cc1ccc(O)cc1)NC(=O)[C@H](Cc1ccccc1)NC(=O)[C@H](CO)NC(=O)[C@H](CCC(=O)O)NC(=O)[C@H](CC(=O)O)NC(=O)[C@H](CC(C)C)NC(=O)[C@H](CO)NC(=O)CNC(=O)[C@H](CO)NC(=O)[C@@H]1CCCN1C(=O)[C@H](CS)NC(=O)CNC(=O)[C@H](CCCNC(=N)N)NC(=O)CNC(=O)[C@H](Cc1ccc(O)cc1)NC(=O)[C@@H](NC(=O)[C@H](CCC(=O)O)NC(=O)[C@H](CS)NC(=O)[C@H](CCC(=O)O)NC(=O)[C@@H](NC(=O)[C@H](CCC(N)=O)NC(=O)[C@H](C)NC(=O)[C@H](Cc1c[nH]c2ccccc12)NC(=O)[C@H](CCC(=O)O)NC(=O)[C@H](CCC(=O)O)NC(=O)[C@H](CCC(=O)O)NC(=O)[C@H](CC(C)C)NC(=O)[C@@H](N)CO)C(C)C)C(C)C)C(=O)NCC(=O)O (H-SLEEEWAQVECEVYGRGCPSGSLDESFYDWFERQLG-OH)
Insulin receptor [1]
  Activity: 10%
Insulin receptor [2]
  pEC50: 8.40
Insulin receptor [3]
  pKd: 10.70

— ChEMBL document CHEMBL4219044, “Challenges in the design of insulin and relaxin/insulin-like peptide mimetics” (Bioorg Med Chem, 2018)
